Legend:
[1] = Metabolite analysis in plasma and brain (radio-HPLC after i.v. injection); assay type: in vivo, rat
Description: Blood samples were collected at 1, 2, 5 min post-injection and at 10, 20, 40 or 60 min post-injection when the animals were sacrificed. Seven animals used for metabolites analysis were also scanned for 60 min. Plasma was isolated by centrifugation (3 min, 3000 × g at 4 °C). Two hundred µL of CH3CN was added to 200 µL of serum for protein precipitation and after centrifugation (3 min, 3000 × g at 4 °C), 100 µL of supernatant was injected into the HPLC for quantification (HPLC equipment: Shimadzu prominence with a UV detector and bespoke Scintillation detector; column: ACE 3 C18 HL, [Hichrom], 150 × 4.6 mm; porosity: 3 μm; solvent A: 0.1 M ammonium acetate; solvent B: CH3CN, isocratic elution: 50:50 (A/B) in 15 min; flow rate: 1 mL/min; room temperature; absorbance detection at λ = 254 nm). Animal brains were removed and then homogenised by ultra-Turrax® in 2 mL of ice-cold acetonitrile. After centrifugation (3 min, 9000 × g at 4 °C), the supernatant was separated from the pellet. One hundred microliters of brain supernatant were injected on the HPLC column (same conditions as above). Control samples were spiked with 15 µL of stable standard. The parent radiotracer eluted at 11 minutes.

S1R = biological target: T1, S1R (Mus musculus, UniProt O55242); experiment: Autoradiography in 6-OHDA Parkinson's disease mouse model; assay type: binding; details: 6-OHDA mouse
T1 construct: using 20µm fresh frozen brain sections from 6 naïve and 3 AMPA-injected Wistar rats, 6 C57Bl6 mice; from tissue; host or cells: fresh frozen brain sections of 6-OHDA-lesioned C57Bl6 mice
Description: C57Bl6 mice were bred in the animal facility of the European Institute for Molecular Imaging (University of Muenster). Animal experiments were performed in accordance with the German laws for animal protection and were approved by the local bureau for animal care (LANUV, Landesamt für Natur, Umwelt und Verbraucherschutz Nordrhein-Westfalen). For stereotactic injections, mice (n = 6) were anaesthetised (ketamine/xylazine i.p.) and placed into a stereotactic frame. A small skin incision followed by craniotomy was performed. The needle was placed in position (coordinates: AP: +0.5 mm; ML: -2.0 mm; DV: -3.0 mm) and after 1 min, 2 µL of 5 mg/mL 6-hydroxydopamine (6-OHDA) in 0.9% NaCl and 0.02% ascorbic acid were injected into the left striatum using a 5 µL Hamilton 7005KH syringe. The syringe was kept in place for 5 min in order to allow the solution to diffuse into the surrounding tissue and was then retracted slowly.
Sections of frontal (Brodmann areas 8/9) and temporal cortex (Brodmann areas 21/22) were cut from frozen human tissue blocks. Human and rodents sections were mounted on to glass slides (SuperFrost Plus Gold and SuperFrost Plus slides, Thermo Fisher Scientific Inc., MA, USA for human and animal tissues, respectively). For all steps described below, Tris buffer (Trizma pre-set crystals (Sigma, UK), 50 mM, with 120 mM NaCl, with pH adjusted to 7.4 at 4 °C or room temperature) was used. Slides were allowed to defrost then pre-incubated in Tris Buffer at 4 °C for 5min. […] Adjacent sections were incubated with the same solution containing an excess of unlabelled IAM6067 (2 µM) to assess non-specific binding. Next the slides were washed 2 × 2 min in Tris buffer at 4 °C, followed by a quick rinsing in distilled water at 4 °C. Slides were then dried promptly before exposition on Phosphor-Imager plates overnight. Autoradiographs were analysed using AIDA software (Raytest GmbH, Germany). […] Specific binding (total binding minus non-specific binding) in each ROI is expressed as intensity of the photostimulated luminescence (PSL) per pixel.

T1 sequence (O55242 whole entry): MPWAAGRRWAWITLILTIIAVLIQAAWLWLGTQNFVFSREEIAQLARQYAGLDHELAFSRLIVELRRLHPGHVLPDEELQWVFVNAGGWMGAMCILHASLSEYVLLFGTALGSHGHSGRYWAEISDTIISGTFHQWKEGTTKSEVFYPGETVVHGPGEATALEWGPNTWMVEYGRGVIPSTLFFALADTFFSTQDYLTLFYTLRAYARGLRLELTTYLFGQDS

## FCCOc1ccc(CN2CCN(Cc3cc4ccccc4o3)CC2)cc1 [^18F-IAM6067, N-(2-Benzofuranylmethyl)-N'-[4-(2-fluoroethoxy)benzyl]piperazine]
[1]; rat brain, 10 min post-injection
  Percentage of ^18F-IAM6067 and metabolites: 91.3±3.7%
[1]; rat brain, 20 min post-injection
  Percentage of ^18F-IAM6067 and metabolites: 94.1±2.8%
[1]; rat brain, 60 min post-injection
  Percentage of ^18F-IAM6067 and metabolites: 91.3±6.0%
[1]; rat plasma, 1 min post-injection
  Percentage of ^18F-IAM6067 and metabolites: 88.8±12.1%
[1]; rat plasma, 2 min post-injection
  Percentage of ^18F-IAM6067 and metabolites: 58.3±4.1%
[1]; rat plasma, 5 min post-injection
  Percentage of ^18F-IAM6067 and metabolites: 22.4±11.6%
[1]; rat plasma, 10 min post-injection
  Percentage of ^18F-IAM6067 and metabolites: ~10%
[1]; rat plasma, 10 min post-injection, listed as Parent
  Percentage of ^18F-IAM6067 and metabolites: 10.1±8.6%
[1]; rat plasma, 20 min post-injection
  Percentage of ^18F-IAM6067 and metabolites: ~10%
[1]; rat plasma, 20 min post-injection, listed as Parent
  Percentage of ^18F-IAM6067 and metabolites: 9.8±4.2%
[1]; rat plasma, 60 min post-injection
  Percentage of ^18F-IAM6067 and metabolites: not detectable
[1]; rat plasma, 60 min post-injection, listed as Parent
  Percentage of ^18F-IAM6067 and metabolites: 0.0%
S1R; cingulate cortex, contralateral
  specific binding: 4.29 ± 0.84 PSL/pixel
S1R; cingulate cortex, ipsilateral
  specific binding: 4.21 ± 0.87 PSL/pixel
S1R; striatum, contralateral
  specific binding: 3.30 ± 0.55 PSL/pixel
S1R; striatum, ipsilateral
  specific binding: 3.39 ± 0.49 PSL/pixel
S1R; thalamus medio-dorsal, contralateral
  specific binding: 3.22 ± 0.65 PSL/pixel
S1R; thalamus medio-dorsal, ipsilateral
  specific binding: 3.25 ± 0.64 PSL/pixel
S1R; ventral tegmental area/substantia nigra, contralateral
  specific binding: 3.92 ± 1.08 PSL/pixel
S1R; ventral tegmental area/substantia nigra, ipsilateral
  specific binding: 3.82 ± 1.25 PSL/pixel
